Conditions: Liquid; for mass density / viscosity: 101.3 kPa; for mass density: Vibrating tube method; for viscosity: Falling or rolling sphere viscometry; for vapor or sublimation pressure: Ebulliometric method (Recirculating still)

CCCCC#N [pentanenitrile]
Conditions | mass density [kg/m3] | vapor or sublimation pressure [kPa] | viscosity [mPa·s]
283.15 K | 807.7 | – | –
293.15 K | 799.1 | – | 0.7191
303.15 K | 790.4 | – | –
313.15 K | 781.7 | – | 0.5654
323.15 K | 772.9 | – | –
329.35 K | – | 5 | –
333.15 K | 764.2 | – | 0.4567
344.89 K | – | 9.9 | –
345.13 K | – | 10 | –
362.77 K | – | 20 | –
374.08 K | – | 30 | –
386.22 K | – | 45 | –
395.4 K | – | 60 | –
407.76 K | – | 86.4 | –
411.12 K | – | 95 | –
412.96 K | – | 100 | –

Clc1ccccc1Cl [1,2-dichlorobenzene]
Conditions | vapor or sublimation pressure [kPa]
360.41 K | 4.86
377.35 K | 9.95
388.41 K | 14.98
396.96 K | 20.04
403.4 K | 24.99
408.91 K | 30
414.16 K | 35.02
418.75 K | 40.02
422.87 K | 45.05
429.99 K | 55.03
433.29 K | 59.97
438.87 K | 69.93
443.92 K | 79.98
448.94 K | 90.2
451.11 K | 95.11
452.62 K | 98.36

Source: the NIST ThermoML archive (doi:10.1021/acs.jced.8b00590)
